Test [1] concerns the target T1, human recombinant adrenergic α2A receptor (Homo sapiens, UniProt P08913).
T1 construct: expressed in transfected cells; host or cells: insect Sf9 cells
T1 sequence (P08913 1-465): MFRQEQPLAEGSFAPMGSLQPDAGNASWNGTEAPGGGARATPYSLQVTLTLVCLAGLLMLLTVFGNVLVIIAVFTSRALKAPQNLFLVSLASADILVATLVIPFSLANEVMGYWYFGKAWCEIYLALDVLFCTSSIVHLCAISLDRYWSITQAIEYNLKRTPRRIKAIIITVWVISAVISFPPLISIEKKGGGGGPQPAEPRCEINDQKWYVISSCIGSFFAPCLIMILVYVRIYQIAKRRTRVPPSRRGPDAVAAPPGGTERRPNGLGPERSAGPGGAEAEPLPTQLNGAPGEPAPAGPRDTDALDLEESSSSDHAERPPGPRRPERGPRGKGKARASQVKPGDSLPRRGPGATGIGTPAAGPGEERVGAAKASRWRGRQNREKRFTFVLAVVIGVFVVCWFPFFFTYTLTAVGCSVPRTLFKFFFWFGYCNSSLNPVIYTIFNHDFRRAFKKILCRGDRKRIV
Nature of the test: Radioligand binding, adrenergic α2A ([3H]MK-912). To be noted: for Percentage inhibition of ligand binding, Adrenergic α2A: 0.1 µM. In short, it runs like this:
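Sf9-expressed receptor was incubated with compound for 60 min at 25 °C in modified Tris-HCl buffer, pH 7.4. Nonspecific binding was taken as that remaining with 10 μM WB-4101.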

Test [2] addresses T2, human recombinant adrenergic α1D receptor (Homo sapiens, UniProt P25100).
T2 construct: expressed in transfected cells; host or cells: HEK-293
T2 sequence (P25100 1-572): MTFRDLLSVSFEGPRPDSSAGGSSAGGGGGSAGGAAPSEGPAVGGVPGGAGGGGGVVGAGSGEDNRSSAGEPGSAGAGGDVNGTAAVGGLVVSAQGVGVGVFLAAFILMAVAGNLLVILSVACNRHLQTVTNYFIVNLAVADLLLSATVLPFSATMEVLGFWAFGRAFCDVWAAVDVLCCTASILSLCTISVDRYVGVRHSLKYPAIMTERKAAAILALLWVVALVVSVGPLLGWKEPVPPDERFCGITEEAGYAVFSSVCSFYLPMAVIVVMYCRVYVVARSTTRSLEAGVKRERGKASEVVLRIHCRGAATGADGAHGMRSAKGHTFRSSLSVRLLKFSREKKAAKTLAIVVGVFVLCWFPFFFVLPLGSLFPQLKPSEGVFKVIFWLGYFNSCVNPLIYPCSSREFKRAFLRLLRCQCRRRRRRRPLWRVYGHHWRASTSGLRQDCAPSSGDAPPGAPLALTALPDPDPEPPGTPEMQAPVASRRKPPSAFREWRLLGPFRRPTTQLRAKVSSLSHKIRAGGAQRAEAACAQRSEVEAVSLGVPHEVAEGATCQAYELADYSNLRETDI
Nature of the test: Radioligand binding, adrenergic α1D ([3H]Prazosin). The procedure:
Compounds were incubated with 0.6 nM [3H]Prazosin for 60 min at 25° C. Non-specific binding was estimated in the presence of 10 μM phentolamine. Receptor proteins were filtered and washed, the filters were then counted to determine [3H]Prazosin specifically bound. […] Biochemical assay results are presented as the percent inhibition of specific binding in Table B1.

Test [3] addresses T3, rat adrenergic α1B receptor (Rattus norvegicus, UniProt P15823).
T3 construct: rat adrenergic α1B receptor obtained from Wistar Rat liver; from tissue; host or cells: Wistar rat liver
T3 sequence (P15823 1-515): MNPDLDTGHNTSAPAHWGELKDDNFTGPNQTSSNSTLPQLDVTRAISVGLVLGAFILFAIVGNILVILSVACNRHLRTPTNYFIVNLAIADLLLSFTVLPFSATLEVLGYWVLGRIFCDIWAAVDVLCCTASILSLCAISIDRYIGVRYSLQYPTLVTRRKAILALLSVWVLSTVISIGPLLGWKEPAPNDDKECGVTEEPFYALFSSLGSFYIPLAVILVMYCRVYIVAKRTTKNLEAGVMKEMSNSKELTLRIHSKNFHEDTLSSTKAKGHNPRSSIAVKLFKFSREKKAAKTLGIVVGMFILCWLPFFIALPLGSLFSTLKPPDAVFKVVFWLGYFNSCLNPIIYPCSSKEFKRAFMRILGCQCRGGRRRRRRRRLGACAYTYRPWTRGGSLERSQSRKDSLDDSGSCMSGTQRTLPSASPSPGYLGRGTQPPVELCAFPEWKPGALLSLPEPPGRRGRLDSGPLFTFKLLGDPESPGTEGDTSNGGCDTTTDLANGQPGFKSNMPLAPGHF
Nature of the test: Radioligand binding, adrenergic α1B ([3H]Prazosin). In short, it runs like this:
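Incubation ran 60 min at 25 °C in Tris-HCl buffer (50 mM, pH 7.4, 0.5 mM EDTA) with Wistar rat liver α1B receptor. 10 μM phentolamine set non-specific binding.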

Test [4] deals with T4, human recombinant adrenergic α2B receptor (Homo sapiens, UniProt P18089).
T4 construct: expressed in transfected cells; host or cells: CHO-K1
T4 sequence (P18089 1-450): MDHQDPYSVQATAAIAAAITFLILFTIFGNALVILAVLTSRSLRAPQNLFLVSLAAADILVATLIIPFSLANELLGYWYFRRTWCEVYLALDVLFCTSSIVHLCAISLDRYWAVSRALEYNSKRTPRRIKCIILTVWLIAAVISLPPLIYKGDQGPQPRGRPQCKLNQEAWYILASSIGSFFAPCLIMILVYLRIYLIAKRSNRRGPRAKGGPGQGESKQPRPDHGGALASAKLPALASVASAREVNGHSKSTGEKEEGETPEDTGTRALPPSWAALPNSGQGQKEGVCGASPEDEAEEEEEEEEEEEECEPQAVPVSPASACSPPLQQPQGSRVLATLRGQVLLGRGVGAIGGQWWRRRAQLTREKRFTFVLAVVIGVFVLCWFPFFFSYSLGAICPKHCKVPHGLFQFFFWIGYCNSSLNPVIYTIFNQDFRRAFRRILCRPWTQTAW
Nature of the test: Radioligand binding, adrenergic α2B ([3H]Rauwolscine). The gist of the method:
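Readout: percent inhibition of specific [3H]Rauwolscine binding, measured by filtration and counting. Conditions: CHO-K1 cell-expressed receptor, 2.5 nM radioligand, 60 min, 25° C, Tris-HCl pH 7.4 buffer with MgCl2, EDTA, BSA. Non-specific binding: 10 μM Prazosin.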

[5] abbreviates: 0.1 μM compound, read-out: Percentage inhibition of ligand binding, Adrenergic α2A.
The mark [6] stands for this setting: 0.1 μM compound, read-out: Percentage inhibition of ligand binding, Adrenergic α1D.
The mark [7] stands for this setting: 0.1 μM compound, read-out: Percentage inhibition of ligand binding, Adrenergic α1B.
The mark [8] stands for this setting: 0.1 μM compound, read-out: Percentage inhibition of ligand binding, Adrenergic α2B.
The mark [9] stands for this setting: read-out: Percentage inhibition of ligand binding, Adrenergic α2A (0.1 μM), compound at 0.1 μM, [3H]MK-912, repeat datapoints each shown.
The mark [10] stands for this setting: read-out: Percentage inhibition of ligand binding, Adrenergic α1D (0.1 μM), compound at 0.1 μM, [3H]Prazosin, repeat datapoints each shown.
Where [11] appears, read: read-out: Percentage inhibition of ligand binding, Adrenergic α1B (0.1 μM), compound at 0.1 μM, [3H]Prazosin, repeat datapoints each shown.
Where [12] appears, read: read-out: Percentage inhibition of ligand binding, Adrenergic α2B (0.1 μM), compound at 0.1 μM, [3H]Rauwolscine, repeat datapoints each shown.

“And” between values parts separate entries of the source, which are not always exact repeats. Equal values may be shown once. Read-outs that look alike come from different tables or passages of the source.

The source of these data is US8791132B2, “Compounds and methods for treatment of hypertension” (Medivation Technologies, Inc., priority 2011, dated 2014).

The inhibition is the drop in the measured response relative to a control, in per cent. The term Ki denotes a dissociation constant, usually derived from enzyme kinetics or from competition with a known ligand.

For `CN1CCc2c(c3cc(Cl)c(Cl)cc3n2CC(C)(O)c2ccncc2)C1` (stereo not drawn) [compound 253], the “Percentage inhibition of ligand binding, Adrenergic α2A” value in test [1] (0.1 μM compound) is listed as 64%. Further, the inhibition at 0.1 µM in test [1] (setting [5]) was 44%; in test [2] (setting [6]), 18%; in test [3] (setting [7]) it was 54%. Besides, the “Percentage inhibition of ligand binding, Adrenergic α1D” value in test [2] (0.1 μM compound, 0.1 µM) was found to be 24%. Also, the “Percentage inhibition of ligand binding, Adrenergic α1B” value in test [3] (0.1 μM compound, 0.1 µM) stood at 55%. For the same compound, in test [4] (0.1 μM compound, 0.1 µM), the “Percentage inhibition of ligand binding, Adrenergic α2B” value was 64% and 86%.

As to `CSc1cccc(/C(C)=C/n2c3c(c4cc(Cl)ccc42)CN(C)CC3)c1` [compound 295], the inhibition at 0.1 µM in test [1] (setting [5]) worked out at 69%; in test [2] (setting [6]), 7%; in test [3] (setting [7]), 15%; in test [4] (setting [8]), 79%.

As to `Cc1ccc2c(c1)c1c(n2C2=C(c3cccnc3)CCC2)CCN(C)C1` [compound 300, 2,8-dimethyl-5-(2-(pyridin-3-yl)cyclopent-1-enyl)-2,3,4,5-tetrahydro-1H-pyrido[4,3-b]indole], the inhibition at 0.1 µM in test [1] (setting [5]) stood at 67%; in test [2] (setting [6]), 29%; in test [3] (setting [7]), 14%; in test [4] (setting [8]), 86%.

As for `Cc1ccc2c(c1)c1c(n2CCc2cncc(Cl)c2)CCN(C)CC1` [compound 92], the inhibition at 0.1 µM was 30% in test [1] (setting [9]), 46% in test [2] (setting [10]), 77% in test [3] (setting [11]) and 77% in test [4] (setting [12]).

For `Cc1cnc2c(c1)c1c(n2CCc2ccc(C(F)(F)F)nc2)CCN(C)C1` [II-119, 3,6-dimethyl-9-(2-(6-(trifluoromethyl)pyridin-3-yl)ethyl)-6,7,8,9-tetrahydro-5H-pyrrolo[2,3-b:4,5-c′]dipyridine], the inhibition at 0.1 µM in test [1] (setting [9]) was -4%; in test [2] (setting [10]), 53%; in test [3] (setting [11]) it was 23%; in test [4] (setting [12]), 27%.

In the case of `C/C(=C\n1c2c(c3cc(C)ccc31)CCN(C)CC2)c1ccccc1F` [compound 232], the inhibition at 0.1 µM in test [1] (setting [9]) came to 87%; in test [2] (setting [10]), 43%; in test [3] (setting [11]), 87%; in test [4] (setting [12]), 102%.

For the compound `C/C(=C\n1c2c(c3cc(Cl)ccc31)CCN(C)CC2)c1ccccc1Cl` [compound 235], the inhibition at 0.1 µM in test [1] (setting [9]) worked out at 80%; in test [2] (setting [10]), 11%; in test [3] (setting [11]), 48%; in test [4] (setting [12]) it was 96%.

For the compound `C/C(=C\n1c2c(c3cc(C)ccc31)CCN(C)C2)c1ccc(Cl)cc1` [compound 224], the inhibition at 0.1 µM in test [1] (setting [9]) was found to be 52%; in test [2] (setting [10]), 26%; in test [3] (setting [11]), 70%; in test [4] (setting [12]) it was 69%.

As to `CC(=O)Nc1ccc(/C(C)=C\n2c3c(c4cc(C)ccc42)CN(C)CC3)cn1` [compound 111], the inhibition at 0.1 µM in test [1] (setting [9]) turned out to be 0%; in test [2] (setting [10]), 77%; in test [3] (setting [11]) it was 56%; in test [4] (setting [12]) it was 65%.

Regarding `Cc1ccc(C#Cn2c3c(c4cc(Cl)ccc42)C2CCC(C3)N2C)cn1` (stereo not drawn) [compound 95], the inhibition at 0.1 µM in test [1] (setting [9]) was 9%; in test [2] (setting [10]) it was 29%; in test [3] (setting [11]), 52%; in test [4] (setting [12]) it was 105%.

`Cc1ccc2c(c1)c1c(n2CCc2cccc3c2CCNC3)CCN(C)C1` [compound 317, 2,8-dimethyl-5-[2-(1,2,3,4-tetrahydro-isoquinolin-5-yl)-ethyl]-2,3,4,5-tetrahydro-1H-pyrido[4,3-b]indole]: the inhibition at 0.1 µM was determined as 61% in test [1] (setting [5]), 71% in test [2] (setting [6]), 89% in test [3] (setting [7]) and 7% in test [4] (setting [8]).

In the case of `C=C(n1ccnc1)n1c2c(c3cc(C)ccc31)CN(C)CC2` [compound 118, 5-(1-imidazol-1-yl-vinyl)-2,8-dimethyl-2,3,4,5-tetrahydro-1H-pyrido[4,3-b]indole], the inhibition at 0.1 µM was found to be 19% in test [1] (setting [9]), 7% in test [2] (setting [10]), 35% in test [3] (setting [11]) and 60% in test [4] (setting [12]).

With `C/C(=C\n1c2c(c3cc(C)ccc31)CN(C)CC2)c1ccc(Cl)c(Cl)c1` [compound 243], in test [1], the Ki was 3.86 nM. Moreover, in test [1] (0.03 μM compound, read-out: Percentage inhibition of ligand binding, Adrenergic α2A), the inhibition at 0.03 µM was found to be 73%. Besides, the “Percentage inhibition of ligand binding, Adrenergic α2A” value in test [1] (0.1 μM compound) stood at 98%. Further, the inhibition at 0.1 µM came to 90% in test [1] (setting [5]), 45% in test [2] (setting [6]), 58% in test [3] (setting [7]) and 105% in test [4] (setting [8]).

`C/C(=C/n1c2c(c3cc(C)ccc31)CCN(C)CC2)c1ccc(Cl)cc1Cl` [compound 226]: the inhibition at 0.1 µM in test [1] (setting [9]) came out at 85%; in test [2] (setting [10]), 48%; in test [3] (setting [11]) it was 88%; in test [4] (setting [12]) it was 83%.

As to `Cc1ccc2c(c1)c1c(n2C2=C(c3cnc(N(C)C)nc3)CCC2)CCN(C)C1` [compound 303, 5-(2-(2,8-dimethyl-3,4-dihydro-1H-pyrido[4,3-b]indol-5(2H)-yl)cyclopent-1-enyl)-N,N-dimethylpyrimidin-2-amine], the inhibition at 0.1 µM in test [1] (setting [5]) was determined as 62%; in test [2] (setting [6]), 51%; in test [3] (setting [7]) it was 16%; in test [4] (setting [8]) it was 71%.
